Measurements published in ChEMBL document CHEMBL5096196, “Utilizing structure based drug design and metabolic soft spot identification to optimize the in vitro potency and in vivo pharmacokinetic properties leading to the discovery of novel reversible Bruton's tyrosine kinase inhibitors” (Bioorg Med Chem, 2021).

Assays:
[1] = Apparent permeability of compound across Caco-2/TC-7 monolayers in human Caco-2 cells by LC/MSMS analysis; format: ADME, cell-based
in vitro [2] = settings: human, liver microsomes
in vitro [3] = settings: rat, liver microsomes
[4] = Metabolic stability in rat liver microsomes; format: ADME, Microsome
[5] = Metabolic stability in human liver microsomes; format: ADME, Microsome
physchem = settings: octanol/water

remaining at 0.5 h (in vitro [2]) | remaining at 0.5 h (in vitro [3]) | SMILES | further results
– | – | O=C1[C@H](Nc2cc(F)cc(Cl)c2)CCCN1[C@@H]1CCCN(c2ncnc3[nH]ccc23)C1 | Papp [1]: 28 ×10⁻⁶ cm/s
13% | 85% | O=C(O)/C=N/[C@@H]1CCCN(c2ncnc3[nH]ncc23)C1 | –
– | – | N[C@@H](C(=O)N[C@@H]1CCCN(c2ncnc3[nH]ncc23)C1)C1CC1 | Stability [4]: 7%; Stability [5]: < 5%
19% | 11% | O=C(CO)N[C@@H]1CCCN(c2ncnc3[nH]ncc23)C1 | –
– | – | O=C(N[C@@H]1CCCN(c2ncnc3[nH]ncc23)C1)[C@H](O)C1CC1 | Stability [4]: 6%; Stability [5]: < 5%
31% | < 5% | O=C(N[C@@H]1CCCN(c2ncnc3[nH]ncc23)C1)C(O)Nc1cc(Cl)cc(Cl)c1 (some centres not stated) | –
– | – | O=C1[C@H](Nc2cc(F)cc(Cl)c2)CCCN1[C@@H]1CCCN(c2ncnc3[nH]ncc23)C1 | logD (physchem): 4
